Measured values as given in patent publication US20200399329A1, “ANTIMICROBIAL PEPTIDES” (priority 2015, published 2020).
In brackets after ≈: the same amount, converted by molar mass. Several values for one entry are separate records, joined by “and”; a condition that tells them apart may be missing. Equal entries are not always repeated. Where two headings read alike, the source gives them in different places. Where a SMILES comes first, the peptide text is derived from it.

Columns and labels:
[1] = system: E. coli; test: Antimicrobial activity after pre-treatment of peptide with Proteinase-K; format: cell-based; conditions: 12.5 μM peptide pre-treated with 20 ng ProtK for 2 hours at 37° C., 18 hours
Description: The susceptibility of OMN6/CecA to proteolytic degradation was assessed and the effects of stability on activity were determined. Native peptide-CecA and engineered peptide-OMN6 were incubated with 20 ng of Proteinase-K (ProtK) at 37° C. for two hours (left bars and right bars, respectively). E. coli at 500,000 CFU/ml were incubated for 18 hours with either CecA or OMN6 pretreated with ProtK. After the incubation, bacterial survival was determined via absorption at OD600 nm and via CFU count on agar plates.

[2] = system: E. coli ESBL BAA-198; format: cell-based, Escherichia coli
Description: (§1) In order to determine the Minimal Bactericidal Concentration (MBC) values of the peptides, colony formation of various bacteria strains was monitored and determined after treatment with the peptides of the invention. Multi-Drug Resistant A. baumannii bacteria were cultured with or without OMN6 in increasing concentrations, as is detailed in FIG. 6 and Example 6. Immediately afterwards, samples of each experimental group were diluted to 1×10^4 to 1×10^6 as necessary, and further, the samples were plated on appropriate medium-agar plates. All the plates were incubated at 37° C. for 24-48 hours. Colonies were counted and CFU/ml in the original sample, prior to plating, were calculated and determined. An example of the plates, after incubation, is presented in FIG. 7 where the plate on the left side of the image is the CTRL sample treated with DDW and in the right side of the image increasing concentrations of OMN6 are presented, as specified therein.
(§2) The experimental system and parameters described here were used to determine the MBC values of OMN2, OMN6, OMN7 and OMN11 on various bacteria strains with and without the supplementation of 10% FBS (Table 6 and Table 8).

[3] = system: A. baumannii BAA-1793; format: cell-based, Acinetobacter baumannii; conditions: FIG. 7
Description: as §1, §2

[4] = system: Escherichia coli (ATCC BAA-198) ESBL; test: Efficacy in mouse model of subcutaneous infection with E. coli; format: in vivo, mice
Description: Animals: Healthy adult female mice weighing 16-20 g were used. CD-I outbred (Harlan Breeding Labs, Jerusalem, Israel) were used in all experiments. Animals were caged in groups of 5-10 and were maintained on chow (Ralston Purina) and water ad-libitum.
Bacteria: Escherichia coli (ATCC BAA-198) is an extended spectrum beta-lactamase (ESBL) TEM-26 multi drug resistant strain. Stock cultures were grown in Tryptic Soy Broth (TSB) (Becton, Dickinson and company BD. Maryland, USA) at 37°.
Colonies were counted after incubation for 24 hours on TSB-agar (BD), and results were expressed as colony forming units (CFU)/ml.
Inoculum: All broth cultures were adjusted to 1×10^8 CFU/animal for the challenge dose by adding TSB to a final volume of 50 μl. Bacteria were administered via subcutaneous (SC) injection with tuberculin syringes capped with 29-gauge needles. Recipient animals had the right flank shaved and depilated with hair remover cream (ORNA19, Israel). To inject the inoculum, the needle was inserted SC 1 cm lateral to the thoracic spine and just anterior to the right hind extremity. The needle was tracked anteriorly and SC for 1 cm; then 50 μl of inoculum was injected.
OMN6 peptide at 8 mg/kg in a total volume of 80 μl was injected SC after one hour to the same area. All animals appeared well and fully active within 2-4 hours after this procedure. All animals were monitored for food and water consumption, mortality and any other adverse effects for the entire 5-day duration of the experiment.
Evaluation of Bacterial Burden: A 2 cm^2 area of skin was incised and the inner side, where the abscess was located, was scraped with a sterile scalpel. Scraped tissue was filtered through a 40 μm cell-strainer. Filtered mass was collected, centrifuged at 500 RPM for 2 minutes and a sample from the supernatant was plated on TBS-agar plates for 24 hours at 37°. Colonies were then counted and results are presented as CFU/abscess (see FIG. 10A).
Evaluation of Abscesses: Animals were assessed for the presence and size of abscesses on day 5. The animals were anesthetized (Ketamine 225 mg/kg/Xylazine 6 mg/kg BW IP), the right hind flank area was gently exposed by aseptic technique. Abscesses were recorded and then measured by calipers: the product of the longest diameter (D) and corresponding perpendicular diameter (d) was determined as “abscess size” (D×d) findings presented in mm^2 (see FIG. 10B).

[5] = mice, SC 1×10^8 CFU E. coli ESBL, OMN6 8 mg/kg SC after one hour, day 5

CC[C@H](C)[C@H](NC(=O)CNC(=O)[C@H](CC(=O)O)NC(=O)[C@H](CCCNC(=N)N)NC(=O)[C@@H](NC(=O)[C@H](CC(N)=O)NC(=O)[C@H](CCC(N)=O)NC(=O)CNC(=O)[C@@H](NC(=O)[C@H](CCCCN)NC(=O)[C@H](CCC(=O)O)NC(=O)[C@@H](NC(=O)[C@H](CCCCN)NC(=O)[C@H](CCCCN)NC(=O)[C@H](Cc1ccccc1)NC(=O)[C@H](CC(C)C)NC(=O)[C@H](CCCCN)NC(=O)[C@H](Cc1c[nH]c2ccccc12)NC(=O)[C@H](CCCCN)NC(=O)[C@H](CS)NC(=O)[C@@H](N)CCSC)[C@@H](C)CC)C(C)C)[C@@H](C)CC)C(=O)N[C@H](C(=O)N[C@@H](CCCCN)C(=O)N[C@@H](C)C(=O)NCC(=O)N1CCC[C@H]1C(=O)N[C@@H](C)C(=O)N[C@H](C(=O)N[C@@H](C)C(=O)N[C@H](C(=O)N[C@H](C(=O)NCC(=O)N[C@@H](CCC(N)=O)C(=O)N[C@@H](C)C(=O)N[C@H](C(=O)N[C@@H](CCC(N)=O)C(=O)N[C@H](C(=O)N[C@@H](C)C(=O)N[C@@H](CCCCN)C(=O)N[C@@H](CS)C(N)=O)[C@@H](C)CC)[C@@H](C)O)C(C)C)C(C)C)C(C)C)[C@@H](C)CC [OMN6] (H-MCKWKLFKKIEKVGQNIRDGIIKAGPAVAVVGQATQIAKC-NH2; N-terminus and C-terminus assumed)
Bacterial survival/growth as percent of CTRL group [1]: less than 10%
MBC [2]: 5 µM (≈ 21.7 µg/mL)
Colony formation of Multi-Drug Resistant A. baumannii after plating ([3]; OMN6 0.62 μM and 1.25 μM): no inhibition of growth
Colony formation of Multi-Drug Resistant A. baumannii after plating ([3]; OMN6 2.5 μM, 5 μM and 10 μM): void of colonies
Decrease in abscess size ([4]; OMN6 8 mg/kg SC versus sham-saline): 80%
Decrease in bacteria burden ([4]; OMN6 8 mg/kg SC versus sham-saline, 8 mg/kg): 93.3% and 94%
Average size of the abscesses (D×d) [4, 5]: 7.25 mm^2
Bacteria burden [4, 5]: 20 CFU/mouse
